According to ChEMBL document CHEMBL2321748, “Structure-Based Approach for the Discovery of Pyrrolo[3,2-d]pyrimidine-Based EGFR T790M/L858R Mutant Inhibitors” (ACS Med Chem Lett, 2013):
Calls of active or inactive are those of the source. The calls are words filed in the database; no cut-off is given here.

Columns and labels:
[1] = system: Epidermal growth factor receptor (Homo sapiens), P00533 [L858R,T790M]; test: Time dependent inhibition of human EGFR T790M/L858R mutant expressed in Sf9 cells using [gamma32P]-ATP up to 1 hr by scintillation counting
[2] = target: Epidermal growth factor receptor (Homo sapiens, UniProt P00533); test: Inhibition of human wild type EGFR expressed in Sf9 cells using [gamma32P]-ATP after 10 mins by scintillation counting
Chain of Epidermal growth factor receptor (P00533 whole entry): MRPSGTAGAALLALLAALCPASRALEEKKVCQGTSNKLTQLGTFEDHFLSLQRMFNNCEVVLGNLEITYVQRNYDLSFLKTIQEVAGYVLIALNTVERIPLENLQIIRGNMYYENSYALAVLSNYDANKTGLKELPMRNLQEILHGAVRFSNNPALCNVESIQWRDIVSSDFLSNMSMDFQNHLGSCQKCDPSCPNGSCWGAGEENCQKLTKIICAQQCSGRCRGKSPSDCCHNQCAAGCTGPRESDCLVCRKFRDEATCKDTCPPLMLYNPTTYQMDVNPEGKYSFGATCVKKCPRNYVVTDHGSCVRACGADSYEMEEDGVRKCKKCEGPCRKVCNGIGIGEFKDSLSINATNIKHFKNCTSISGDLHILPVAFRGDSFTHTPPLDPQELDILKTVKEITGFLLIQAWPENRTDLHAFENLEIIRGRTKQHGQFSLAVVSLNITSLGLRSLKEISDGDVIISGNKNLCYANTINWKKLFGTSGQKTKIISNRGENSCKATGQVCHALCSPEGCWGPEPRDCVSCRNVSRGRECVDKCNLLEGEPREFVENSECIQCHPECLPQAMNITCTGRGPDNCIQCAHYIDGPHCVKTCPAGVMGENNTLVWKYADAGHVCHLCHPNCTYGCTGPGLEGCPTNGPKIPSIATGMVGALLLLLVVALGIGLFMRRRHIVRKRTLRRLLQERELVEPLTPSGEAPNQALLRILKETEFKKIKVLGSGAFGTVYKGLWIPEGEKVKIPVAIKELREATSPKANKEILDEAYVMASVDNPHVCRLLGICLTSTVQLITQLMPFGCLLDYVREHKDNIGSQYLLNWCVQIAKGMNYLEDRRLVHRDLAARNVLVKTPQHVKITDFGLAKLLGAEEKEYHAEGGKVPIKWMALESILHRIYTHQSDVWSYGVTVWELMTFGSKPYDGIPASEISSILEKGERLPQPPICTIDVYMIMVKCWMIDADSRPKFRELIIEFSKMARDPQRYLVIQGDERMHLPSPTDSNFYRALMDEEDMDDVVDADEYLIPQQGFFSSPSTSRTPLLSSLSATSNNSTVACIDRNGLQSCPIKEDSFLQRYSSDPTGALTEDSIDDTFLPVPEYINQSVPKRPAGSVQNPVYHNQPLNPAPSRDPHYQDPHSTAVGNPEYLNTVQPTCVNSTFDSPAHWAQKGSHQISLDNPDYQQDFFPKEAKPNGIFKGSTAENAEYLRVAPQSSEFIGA

Chain of Epidermal growth factor receptor (Homo sapiens), P00533 [L858R,T790M] (P00533 whole entry T790M/L858R, looked up): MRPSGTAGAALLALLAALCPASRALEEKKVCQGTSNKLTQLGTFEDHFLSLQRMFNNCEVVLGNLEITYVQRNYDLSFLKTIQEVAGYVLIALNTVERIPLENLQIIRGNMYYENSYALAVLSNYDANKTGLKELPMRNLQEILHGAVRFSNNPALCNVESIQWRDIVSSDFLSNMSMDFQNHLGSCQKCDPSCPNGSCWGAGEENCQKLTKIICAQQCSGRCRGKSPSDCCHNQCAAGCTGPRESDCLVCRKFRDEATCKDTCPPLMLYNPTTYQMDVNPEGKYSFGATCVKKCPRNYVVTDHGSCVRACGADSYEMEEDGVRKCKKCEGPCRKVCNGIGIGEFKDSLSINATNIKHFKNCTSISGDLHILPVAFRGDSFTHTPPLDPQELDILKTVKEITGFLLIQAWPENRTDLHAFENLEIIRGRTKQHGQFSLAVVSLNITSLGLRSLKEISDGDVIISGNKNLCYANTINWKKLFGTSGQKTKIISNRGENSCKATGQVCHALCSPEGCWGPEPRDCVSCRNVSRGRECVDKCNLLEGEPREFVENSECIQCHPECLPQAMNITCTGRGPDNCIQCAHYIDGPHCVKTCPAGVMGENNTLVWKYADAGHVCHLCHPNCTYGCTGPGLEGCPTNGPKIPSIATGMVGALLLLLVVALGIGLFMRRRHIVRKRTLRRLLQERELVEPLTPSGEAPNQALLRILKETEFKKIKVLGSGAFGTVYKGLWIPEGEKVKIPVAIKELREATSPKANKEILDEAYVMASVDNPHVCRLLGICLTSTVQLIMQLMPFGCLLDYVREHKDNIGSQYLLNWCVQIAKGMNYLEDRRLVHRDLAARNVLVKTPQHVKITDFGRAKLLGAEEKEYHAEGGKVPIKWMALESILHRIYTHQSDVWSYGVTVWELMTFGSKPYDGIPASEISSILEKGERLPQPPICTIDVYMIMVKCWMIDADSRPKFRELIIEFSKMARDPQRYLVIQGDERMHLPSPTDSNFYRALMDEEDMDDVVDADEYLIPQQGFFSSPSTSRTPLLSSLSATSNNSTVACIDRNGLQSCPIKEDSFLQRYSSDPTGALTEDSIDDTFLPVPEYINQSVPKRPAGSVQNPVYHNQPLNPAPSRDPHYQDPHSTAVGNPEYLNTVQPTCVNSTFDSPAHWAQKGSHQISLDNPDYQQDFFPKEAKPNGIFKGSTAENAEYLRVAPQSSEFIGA

| inhibition [1] | IC50 [2] [nM] | SMILES |
| --- | --- | --- |
| inactive | 4.6 | CN(C)C/C=C/C(=O)NCCn1ccc2ncnc(Nc3ccc(Oc4cccc(C(F)(F)F)c4)c(Cl)c3)c21 |
|  | 6.9 | O=C(Nc1cccc(Oc2ccc(Nc3ncnc4ccn(CCOCCO)c34)cc2Cl)c1)NC1CCCCC1 |
